Data published in BindingDB's records for patent US10709709 (Pfizer Inc., 2020).

Target: Protein arginine N-methyltransferase 5 (Homo sapiens, UniProt O14744)
Experiment: Biochemical Assay
Procedure: Compounds were solubilized in DMSO and serially diluted, using 3-fold dilutions, into 100% DMSO at a concentration 50-fold greater than the desired assay concentration. Following dilution, 1 ul was added to an empty 96-well microtiter plate. PRMT5/MEP50 protein complex was combined with H4(1-21) peptide ([…]) in PRMT5 assay buffer (50 mM Tris pH 8.5, 50 mM NaCl, 5 mM MgCl2, 1 mM EDTA, 1 mM TCEP) and 44 ul was added to the microtiter plate containing compound. S-Adenosyl-L-methionine (SAM) was prepared by combining 3H labelled SAM with unlabelled SAM in PRMT5 assay buffer such that the final SAM concentration was 10 uM and the specific activity was 0.2 uCi/ul. The reaction was initiated by adding 5 ul of SAM stock to the microtiter plate. The final reaction conditions were 10 nM PRMT5/MEP50 complex, 200 nM peptide and 1 uM SAM. Following a 25 minute incubation at room temperature, the reaction was stopped with the addition of 100 uL of 20% TCA. The 3H-peptide product was captured using a 96-well filter plate (MSIPN4B, Millipore) and washed 5 times with PBS buffer. Scintillation fluid (100 ul) was added to the dried filter plate and counted in a liquid scintillation counter. IC50 values were determined by fitting the data to the standard 4-parameter dose response equation using Pfizer proprietary software.

Protein arginine N-methyltransferase 5, sequence (O14744 whole entry): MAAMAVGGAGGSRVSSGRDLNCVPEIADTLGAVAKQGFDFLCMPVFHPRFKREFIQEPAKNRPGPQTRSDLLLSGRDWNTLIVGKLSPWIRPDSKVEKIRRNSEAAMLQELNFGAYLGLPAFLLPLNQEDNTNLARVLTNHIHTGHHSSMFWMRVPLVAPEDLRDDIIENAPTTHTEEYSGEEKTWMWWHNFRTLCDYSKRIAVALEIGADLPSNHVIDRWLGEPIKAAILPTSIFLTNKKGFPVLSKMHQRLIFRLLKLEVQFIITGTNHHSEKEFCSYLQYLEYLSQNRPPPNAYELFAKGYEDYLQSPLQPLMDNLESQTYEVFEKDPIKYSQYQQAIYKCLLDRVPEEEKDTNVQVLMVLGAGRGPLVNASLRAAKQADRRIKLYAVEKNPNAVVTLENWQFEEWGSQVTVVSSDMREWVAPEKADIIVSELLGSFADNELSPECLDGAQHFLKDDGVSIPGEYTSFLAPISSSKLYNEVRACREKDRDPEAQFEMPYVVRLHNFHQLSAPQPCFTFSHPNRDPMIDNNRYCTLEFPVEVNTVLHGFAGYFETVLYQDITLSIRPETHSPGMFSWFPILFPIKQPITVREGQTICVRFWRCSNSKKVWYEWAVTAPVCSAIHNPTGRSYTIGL

IC50	SMILES
1 nM	Nc1ncnc2c1c(Br)cn2[C@@H]1C[C@H](Oc2cc(Cl)cc3c2CNCC3)[C@@H](O)[C@H]1O [US10709709, Example 131]
1 nM	Cc1ncnc2c1ccn2[C@@H]1C[C@H](Oc2cc(C(F)F)cc3c2CNCCO3)[C@@H](O)[C@H]1O [US10709709, Example 205]
2 nM	Cc1cc2c(c(O[C@H]3C[C@@H](n4ccc5c(C)ncnc54)[C@H](O)[C@@H]3O)c1)CNCCO2 [US10709709, Example 206]
